Experimental data published in publication PMC3481598, “Hierarchical virtual screening for the discovery of new molecular scaffolds in antibacterial hit identification” (Journal of the Royal Society Interface, 2012).
Read-outs that look alike come from different tables or passages of the source.

Legend:
[1] = molecular target: T1, type II dehydroquinase from Streptomyces coelicolor (Streptomyces coelicolor, UniProt P15474); conditions: cited from earlier work
[2] = molecular target: T2, type II dehydroquinase from Mycobacterium tuberculosis (Mycobacterium tuberculosis, UniProt P9WPX7); conditions: search template RP4, known optimized inhibitor; reference not given, probably ref 33; read-out: Ki (Mtb; μM); cited from earlier work
T2 sequence (P9WPX7 whole entry): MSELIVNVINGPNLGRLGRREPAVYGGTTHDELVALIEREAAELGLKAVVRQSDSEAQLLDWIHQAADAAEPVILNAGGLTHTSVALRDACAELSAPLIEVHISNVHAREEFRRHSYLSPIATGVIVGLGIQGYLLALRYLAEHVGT

[3] = molecular target: T1, type II dehydroquinase from Streptomyces coelicolor; test: S. coelicolor DHQase enzyme inhibition in vitro; format: biochemical
Excerpt: (§1) The next step was to purchase the compounds highlighted by these protocols to test them in vitro against M. tuberculosis DHQase and S. coelicolor DHQase. With the modest budget assigned to this proof of concept (£5000), we could purchase 148 compounds (full details on this process can be found in electronic supplementary material, Materials and methods). Tables 1 and 2 show the performance of each virtual screening protocol against each target (all IC50 measurements are included in the electronic supplementary material). […]. […].
(§2) In order to assess the overall hit rate and potency of these inhibitors, we calculated their inhibition constant (Ki) as explained in electronic supplementary material, Materials and methods (see table 3 for a summary). This is necessary to have a more accurate comparison with hit rates in the literature and with the potency of previously known inhibitors. […]. a total of 40 inhibitors) being noticeably higher than that for M. tuberculosis DHQase (23.6%; 35 inhibitors). […]. This difference might be due to the fact that our protocols are primarily exploiting crystal structures for S. coelicolor DHQase. […].

[4] = molecular target: T2, type II dehydroquinase from Mycobacterium tuberculosis; test: M. tuberculosis DHQase enzyme inhibition in vitro; format: biochemical; conditions: Ki calculated from measured IC50, read-out: Ki (Mtb; μM)
Excerpt: as §1, §2

H. pylori DHQase = molecular target: H. pylori DHQase; parameters: method as in PMID 16480265; conditions: HTS hit; read-out: Ki against H. pylori DHQase; cited from earlier work

T1 sequence (P15474 whole entry): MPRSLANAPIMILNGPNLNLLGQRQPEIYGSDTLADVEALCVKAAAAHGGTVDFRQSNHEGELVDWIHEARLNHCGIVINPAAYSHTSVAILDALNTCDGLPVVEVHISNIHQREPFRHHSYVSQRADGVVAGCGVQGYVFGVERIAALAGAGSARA

Structure (SMILES)	Ki [3] [µM]	Ki [4] [µM]	further results
O=C(O)[C@]1(O)C=C(c2cccc(Sc3ccccc3)c2)[C@@H](O)[C@H](O)C1 [RP4]	–	–	Ki ([1]; read-out: Ki (Sc; μM), search template RP4, known optimized inhibitor): 0.07 µM; Ki [2]: 0.38 µM
O=C(O)[C@H](Cc1ccccc1)N1C(=O)/C(=C/c2cccc3ccccc23)SC1=S [ZINC00978022]	4	–	–
COc1ccc(CC(=O)Nc2cc(C(F)(F)F)ccc2N(C)C)cc1F [ZINC18086350]	–	166	inhibition at 224 µM ([3]; read-out: inhibition of S. coelicolor DHQase): 45%
CC(C)N(C(=O)COC(=O)c1ccc(N)c([N+](=O)[O-])c1)C(C)C [ZINC05657290]	201	192	–
CCOC(=O)C1=C(CSc2nc3ccccc3[nH]2)NC(=O)N[C@H]1C [ZINC06024496]	174	159	–
O=c1c2ccccc2oc2ccc(S(=O)(=O)N=c3[nH]nn[nH]3)cc12 [GAJ]	–	–	Ki (H. pylori DHQase): 20 µM
O=C(O)[C@]1(O)C[C@H](CCCOc2ccccc2)[C@@H](O)[C@H](O)C1 [CA2]	–	–	Ki ([1]; read-out: measured Ki (2BT4 ligand)): 33 µM
CC[C@H](C)NC(=O)c1ccccc1NC(=O)Cc1ccccc1 [ZINC10025084]	148	167	–
CC[C@H](C)NC(=O)c1ccccc1NC(=O)Cc1c(F)cccc1Cl [ZINC15608616]	149	150	–
O=C(Cn1nc2ccccn2c1=O)N(Cc1cccs1)Cc1cccs1 [ZINC24469052]	21	–	–
